Test results published in patent US6436905B1, “Lipid-containing compositions and uses thereof” (Aston University, priority 1997, dated 2002).

Assay: Pulsating bubble surfactometry: minimum surface tension and time to reach it
Type: physicochemical
Text: One of the most important properties of the polymer/phospholipid complexes in accordance with the invention, especially for use as artificial lung surfactants, is the manner in which the surface tension varies with repetitive changes in surface area, and one test method that has been used is a pulsating bubble technique using a pulsating bubble surfactometer which consists of a sample chamber, pulsator unit and pressure-recording device. In a particular example, the sample chamber is made up of a capillary tube (ID 0.5 mm) inserted into a wider diameter tube (ID 1.5 mm). The latter is filled with the sample liquid and connected to a pulsator unit and pressure transducer. Air is drawn in through the capillary tube which acts as an airways forming a bubble of air within the sample chamber. This bubble serves as a model alveolus. […] Variations of pressure within the bubble, during each pulsation cycle, are measured by a transducer and combined with values of bubble volume to calculate changes in surface tension.
This pulsating bubble technique simulates to some extent the contraction and expansion of the alveoli sacks in the lungs and allows the surface tension to be assessed at minimum and maximum bubble volumes, and allows the effect of repeated expansion and compression cycles upon the adsorption of surface active components to be observed and quantified. This technique has been used as a model in vitro system for testing the efficacy of synthetic lung surfactants. Some results of tests carried out not only on the complexes prepared in accordance with the invention, but also on the membrane-forming phospholipids used and the polymers themselves, as well as on commercially available lung surfactants, are summarised in the Tables at the end of the present description.
Showing minimum Surface Tension (ST) value achieved and time to reach this level.
Pulse Rate (PR)=34, Temp=Room Temp & pH=7.0 unless otherwise stated.

[1] = 1.0%, pH 3.22, PR = 12, room temp
[2] = 1.0%, pH 7.0 (default), PR 34, room temp, 2 hrs hydration
[3] = 1.0%, pH 7.0 (default), PR 34, room temp, 12 hr hydration
[4] = 1.0%, pH 9.33, PR = 12, room temp
[5] = 1.0%, pH 12.00, PR 34, room temp
[6] = […], pH 7.0 (default), PR 34, room temp, Sonicated
[7] = LALE 1.0%, pH 7.0 (default), PR 34, room temp
[8] = DLPC (fresh) sonicated 0.5, pH 3.92, 24.0 °C, pulse rate 30/min
[9] = DLPC (fresh) 0.5, pH 7.12, 25.1 °C, pulse rate 30/min
[10] = DPPC 0.5, pH 4.1, 21.9 °C, pulse rate 30/min
[11] = DPPC (fresh) 0.5, pH 6.3, 24.9 °C, pulse rate 30/min
[12] = DPPC sonicated 0.5, pH 7.3, 23.1 °C, pulse rate 30/min
[13] = DPPC sonicated 0.5, pH 7.3, 37.5 °C, pulse rate 30/min
[14] = DPPC sonicated 0.5, pH 7.3, 24.0 °C, pulse rate 30/min
[15] = DPPC sonicated 0.5, pH 7.3, 37.5 °C, after 40 mins at room temp, pulse rate 30/min

## CCCCCCCCCCCC(=O)OC[C@H](COP(=O)([O-])OCC[N+](C)(C)C)OC(=O)CCCCCCCCCCC [DLPC, Dilaurylphosphatidylcholine]
[1]
  Minimal ST: 6.39 dynes/cm
  Time to Develop: 30 min
[2]
  Minimal ST: 6.82 dynes/cm
  Time to Develop: 20 min
[3]
  Minimal ST: 24.89 dynes/cm
  Time to Develop: 30 min
[4]
  Minimal ST: 15.66 dynes/cm
  Time to Develop: 30 min
[5]
  Minimal ST: 15.10 dynes/cm
  Time to Develop: 30 min
[6]
  Minimal ST: 9.60 dynes/cm
  Time to Develop: 30 min

## CCCCCCCCCCCCOC(=O)CCCCCCCCCCC [LALE, Lauric acid lauryl ester]
[7]
  Minimal ST: 22.61 dynes/cm
  Time to Develop: 30 min

## CCCCCCCCCCCC(=O)OC[C@H](COP(=O)([O-])OCC[N+](C)(C)C)OC(=O)CCCCCCCCCCC [dlf5]
DLPC (fresh) 0.5, pH 5.47, 24.0 °C, pulse rate 30/min, first line
  Time to Develop: 20 min
DLPC (fresh) 0.5, pH 5.47, 24.0 °C, pulse rate 30/min, first line (time 20)
  Minimal ST <10 dynes/cm: 12.57 dynes/cm
DLPC (fresh) 0.5, pH 5.47, 24.0 °C, pulse rate 30/min, second line
  Time to Develop: 40 min
DLPC (fresh) 0.5, pH 5.47, 24.0 °C, pulse rate 30/min, second line (time 40)
  Minimal ST <10 dynes/cm: 0.04 dynes/cm

## CCCCCCCCCCCC(=O)OC[C@H](COP(=O)([O-])OCC[N+](C)(C)C)OC(=O)CCCCCCCCCCC [dlfs4]
[8]
  Minimal ST <10 dynes/cm: 1.67 dynes/cm
  Time to Develop: 10 min

## CCCCCCCCCCCC(=O)OC[C@H](COP(=O)([O-])OCC[N+](C)(C)C)OC(=O)CCCCCCCCCCC [dlfs7]
[9]
  Minimal ST <10 dynes/cm: 18.25 dynes/cm
  Time to Develop: 20 min

## CCCCCCCCCCCCCCCC(=O)OC[C@H](COP(=O)([O-])OCC[N+](C)(C)C)OC(=O)CCCCCCCCCCCCCCC [dlpf4]
[10]
  Minimal ST <10 dynes/cm: 5.31 dynes/cm
  Time to Develop: 30 min

## CCCCCCCCCCCCCCCC(=O)OC[C@H](COP(=O)([O-])OCC[N+](C)(C)C)OC(=O)CCCCCCCCCCCCCCC [dlpf6]
[11]
  Minimal ST <10 dynes/cm: 16.18 dynes/cm
  Time to Develop: 30 min

## CCCCCCCCCCCCCCCC(=O)OC[C@H](COP(=O)([O-])OCC[N+](C)(C)C)OC(=O)CCCCCCCCCCCCCCC [dlpf7]
[12]
  Minimal ST <10 dynes/cm: 20.36 dynes/cm
  Time to Develop: 40 min

## CCCCCCCCCCCCCCCC(=O)OC[C@H](COP(=O)([O-])OCC[N+](C)(C)C)OC(=O)CCCCCCCCCCCCCCC [dp7st]
[13]
  Minimal ST <10 dynes/cm: 26.58 dynes/cm
  Time to Develop: 2 min

## CCCCCCCCCCCCCCCC(=O)OC[C@H](COP(=O)([O-])OCC[N+](C)(C)C)OC(=O)CCCCCCCCCCCCCCC [dpf7s]
[14]
  Minimal ST <10 dynes/cm: 9.99 dynes/cm
  Time to Develop: 20 min
[15]
  Minimal ST <10 dynes/cm: 27.95 dynes/cm
  Time to Develop: 40 min
